Reference: ChEMBL document CHEMBL4610019, “Novel hybrid molecules of 3,5-bis(benzylidene)-4-piperidones and dichloroacetic acid which demonstrate potent tumour-selective cytotoxicity” (Bioorg Med Chem Lett, 2020)
Calls of active or inactive are those of the source. The calls are words filed in the database; no cut-off is given here.

Key:
HCT-116 [1] = test: Induction of ROS generation in human HCT116 cells assessed as increase in ROS level at 2 times IC50; assay type: functional, cell-based
HCT-116 [2] = test: Induction of ROS generation in human HCT116 cells assessed as increase in ROS level at IC50; assay type: functional, cell-based
HCT-116 [3] = test: Cytotoxicity against human HCT116 cells assessed as inhibition of cell growth; assay type: functional, cell-based
CCD-841CoN = test: Cytotoxicity against human CRL1790 cells assessed as inhibition of cell growth; assay type: cell-based
HCT-116 [4] = test: Induction of mitochondrial membrane potential loss in human HCT116 cells at IC50; assay type: functional, cell-based
[5] = Selectivity index, ratio of IC50 for human CRL1790 cells assessed as inhibition of cell growth to IC50 for human HCT116 cells assessed as inhibition of cell growth; assay type: toxicity; conditions: CRL1790 cells versus HCT116 cells, read-out: Ratio IC50
HCT-116 [6] = test: Induction of mitochondrial membrane potential loss in human HCT116 cells at 2 times IC50; assay type: functional, cell-based
HCT-116 [7] = test: Cell cycle arrest in human HCT116 cells assessed as accumulation at S phase at 0.03 uM (reference value: 18.4 %); assay type: functional
HCT-116 [8] = test: Induction of apoptosis in human HCT116 cells assessed as apoptotic cells at 0.03 uM (reference value: 2.4 %); assay type: functional
HCT-116 [9] = test: Cell cycle arrest in human HCT116 cells assessed as accumulation at G0/G1 phase at 0.03 uM (reference value: 46.8 %); assay type: functional
HCT-116 [10] = test: Cell cycle arrest in human HCT116 cells assessed as accumulation at G2/M phase at 0.03 uM (reference value: 29.4 %); assay type: functional
HCT-116 [11] = test: Cell cycle arrest in human HCT116 cells assessed as accumulation of diploid cells at 0.03 uM (reference value: 2.5 %); assay type: functional
HCT-116 [12] = test: Potency index, ratio of 5-fluorouracil IC50 to test compound IC50 for human HCT116 cells assessed as inhibition of cell growth; assay type: functional
HCT-116 [13] = test: Cell cycle arrest in human HCT116 cells assessed as accumulation at G0/G1 phase at 10.96 uM (reference value: 46.8 %); assay type: functional
HCT-116 [14] = test: Cell cycle arrest in human HCT116 cells assessed as accumulation at G2/M phase at 10.96 uM (reference value: 29.4 %); assay type: functional
HCT-116 [15] = test: Induction of apoptosis in human HCT116 cells assessed as apoptotic cells at 10.96 uM (reference value: 2.4 %); assay type: functional
HCT-116 [16] = test: Cell cycle arrest in human HCT116 cells assessed as accumulation at S phase at 10.96 uM (reference value: 18.4 %); assay type: functional
HCT-116 [17] = test: Cell cycle arrest in human HCT116 cells assessed as accumulation of diploid cells at 10.96 uM (reference value: 2.5 %); assay type: functional
HCT-116 [18] = test: Cell cycle arrest in human HCT116 cells assessed as accumulation at G0/G1 phase at 0.23 uM (reference value: 46.8 %); assay type: functional
HCT-116 [19] = test: Induction of apoptosis in human HCT116 cells assessed as apoptotic cells at 0.23 uM (reference value: 2.4 %); assay type: functional
[20] = Stability of compound in mixture of DMSO and phosphate buffer at 37 degree C incubated for 48 hrs by H-NMR spectroscopy; assay type: physicochemical
HCT-116 [21] = test: Cell cycle arrest in human HCT116 cells assessed as accumulation at S phase at 0.23 uM (reference value: 18.4 %); assay type: functional
HCT-116 [22] = test: Cell cycle arrest in human HCT116 cells assessed as accumulation of diploid cells at 0.23 uM (reference value: 2.5 %); assay type: functional
HCT-116 [23] = test: Cell cycle arrest in human HCT116 cells assessed as accumulation at G2/M phase at 0.23 uM (reference value: 29.4 %); assay type: functional
HCT-116 [24] = test: Induction of apoptosis in human HCT116 cells assessed as apoptotic cells at 0.28 uM (reference value: 2.4 %); assay type: functional
HCT-116 [25] = test: Cell cycle arrest in human HCT116 cells assessed as accumulation at G2/M phase at 0.28 uM (reference value: 29.4 %); assay type: functional
HCT-116 [26] = test: Cell cycle arrest in human HCT116 cells assessed as accumulation at S phase at 0.28 uM (reference value: 18.4 %); assay type: functional
HCT-116 [27] = test: Cell cycle arrest in human HCT116 cells assessed as accumulation of diploid cells at 0.28 uM (reference value: 2.5 %); assay type: functional
HCT-116 [28] = test: Cell cycle arrest in human HCT116 cells assessed as accumulation at G0/G1 phase at 10.96 uM (reference value: 0.28 %); assay type: functional

Row | Compound | IC50 (HCT-116 [3]) [µM] | IC50 (CCD-841CoN) [µM] | selectivity ratio [5] | further results
1 | O=c1[nH]cc(F)c(=O)[nH]1 [FLUOROURACIL] | 4.02 | 18.7 | 4.65 | Activity (HCT-116 [1]): Active; Activity (HCT-116 [2]): Active; Activity (HCT-116 [4]): Active; Activity (HCT-116 [6]): Active
2 | COc1ccc(/C=C2\CN(C(=O)C(Cl)Cl)C/C(=C\c3ccc(OC)c(OC)c3)C2=O)cc1OC | 0.11 | 10.6 | 96.4 | –
3 | O=C1/C(=C/c2ccc([N+](=O)[O-])cc2)CN(C(=O)C(Cl)Cl)C/C1=C\c1ccc([N+](=O)[O-])cc1 | 0.03 | 11.1 | 370 | Activity (HCT-116 [7]): 21.4%; Activity (HCT-116 [1]): Active; Activity (HCT-116 [2]): Active; Activity (HCT-116 [8]): 3.6%; Activity (HCT-116 [4]): Active; Activity (HCT-116 [9]): 44.4%; Activity (HCT-116 [10]): 27.8%; Activity (HCT-116 [11]): 2.2%; Ratio IC50 (HCT-116 [12]): >100; Activity (HCT-116 [6]): Active
4 | O=C1/C(=C/c2ccc3c(c2)OCO3)CN(C(=O)C(Cl)Cl)C/C1=C\c1ccc2c(c1)OCO2 | 0.32 | 21.1 | 65.9 | –
5 | O=C1/C(=C/c2ccc(Cl)cc2)CN(C(=O)C(Cl)Cl)C/C1=C\c1ccc(Cl)cc1 | 0.13 | 14.9 | 115 | –
6 | Cc1ccc(/C=C2\CN(C(=O)C(Cl)Cl)C/C(=C\c3ccc(C)cc3)C2=O)cc1 | 0.03 | 16.2 | 540 | Ratio IC50 (HCT-116 [12]): >100
7 | COc1ccc(/C=C2\CN(C(=O)C(Cl)Cl)C/C(=C\c3ccc(OC)cc3)C2=O)cc1 | 0.27 | 13.2 | 48.9 | –
8 | O=C1/C(=C/c2cccc(F)c2)CN(C(=O)C(Cl)Cl)C/C1=C\c1cccc(F)c1 | 0.11 | 14.8 | 135 | –
9 | COc1cc(/C=C2\CN(C(=O)C(Cl)Cl)C/C(=C\c3cc(OC)c(OC)c(OC)c3)C2=O)cc(OC)c1OC | 0.04 | 15.1 | 378 | Ratio IC50 (HCT-116 [12]): >100
10 | O=C1/C(=C/c2ccc(F)c(F)c2)CN(C(=O)C(Cl)Cl)C/C1=C\c1ccc(F)c(F)c1 | 0.06 | 11.1 | 185 | –
11 | O=C1/C(=C/c2ccccc2F)CN(C(=O)C(Cl)Cl)C/C1=C\c1ccccc1F | 0.21 | 11 | 52.4 | –
12 | O=C1/C(=C/c2ccc(F)cc2)CN(C(=O)C(Cl)Cl)C/C1=C\c1ccc(F)cc1 | 0.05 | 14.6 | 292 | –
13 | O=C1/C(=C/c2ccc(Cl)c(Cl)c2)CN(C(=O)C(Cl)Cl)C/C1=C\c1ccc(Cl)c(Cl)c1 | 0.04 | 12.2 | 305 | Ratio IC50 (HCT-116 [12]): >100
14 | O=C1/C(=C/c2ccc(O)cc2)CN(C(=O)C(Cl)Cl)C/C1=C\c1ccc(O)cc1 | 3.85 | 13.8 | 3.58 | –
15 | CC(C)(C)C(=O)N1C/C(=C\c2ccc(OC(=O)C(Cl)Cl)cc2)C(=O)/C(=C/c2ccc(OC(=O)C(Cl)Cl)cc2)C1 | 0.23 | 16.4 | 71.3 | –
16 | O=C([O-])C(Cl)Cl.[Na+] [SODIUM DICHLOROACETATE] | 14.8 | 12.5 | 0.85 | –
17 | CN(C)c1ccc(/C=C2\CN(C(=O)C(Cl)Cl)C/C(=C\c3ccc(N(C)C)cc3)C2=O)cc1 | 13.3 | 9.12 | 0.69 | Activity (HCT-116 [1]): Active; Activity (HCT-116 [13]): 42.9%; Activity (HCT-116 [2]): Active; Activity (HCT-116 [14]): 29.9%; Activity (HCT-116 [15]): 4.6%; Activity (HCT-116 [4]): inactive; Activity (HCT-116 [16]): 20.8%; Activity (HCT-116 [17]): 1.4%; Activity (HCT-116 [6]): inactive
18 | O=C1/C(=C/c2ccccc2)CN(C(=O)C(Cl)Cl)C/C1=C\c1ccccc1 | 0.23 | 12.5 | 54.4 | Activity (HCT-116 [1]): Active; Activity (HCT-116 [2]): Active; Activity (HCT-116 [18]): 44.7%; Activity (HCT-116 [4]): Active; Activity (HCT-116 [19]): 3.6%; Stability [20]: Stable; Activity (HCT-116 [21]): 19.9%; Activity (HCT-116 [22]): 1.8%; Activity (HCT-116 [6]): Active; Activity (HCT-116 [23]): 29.6%
19 | CC(=O)N1C/C(=C\c2ccccc2)C(=O)/C(=C/c2ccccc2)C1 | 0.28 | 20.8 | 74.3 | Activity (HCT-116 [24]): 3.5%; Activity (HCT-116 [25]): 30%; Activity (HCT-116 [1]): Active; Activity (HCT-116 [2]): Active; Activity (HCT-116 [26]): 18.3%; Activity (HCT-116 [4]): Active; Activity (HCT-116 [27]): 2.4%; Activity (HCT-116 [6]): Active; Activity (HCT-116 [28]): 45.5%
20 | O=C1/C(=C/c2ccccc2)CNC/C1=C\c1ccccc1 | 3.5 | 9.45 | 2.7 | –
